Results: paper PMC10974272, “Cytotoxic and Antiproliferative Activity of LASSBio-2208 and the Attempts to Determine Its Drug Metabolism and Pharmacokinetics In Vitro Profile” (Pharmaceuticals, 2024)

Legend:
PAMPA—BBB = type: in vitro ADME; set-up: key to Classification BBB: permeable (CNS+); non-permeable (CNS−); details: for Papp: read-out: Pe. Exp. BBB
Protocol: To obtain information on the permeability potential of LASSBio-2208 on cell membranes, this derivative was tested using the parallel artificial membrane permeability assay (PAMPA) that is used as an in vitro model of passive diffusion and transcellular permeation. In this model, the permeability across two artificial membranes is measured: brain lipid from pig extract in dodecane (called PAMPA—BBB) and L-α soy phosphatidylcholine in dodecane (called PAMPA—TGI).
To perform the permeability assay we used a donor plate where the compounds (tests or controls) are diluted in a buffered medium, characterized by the presence of a synthetic membrane of polyvinylidene fluoride (PVDF) impregnated with a lipid solution, forming a barrier through which the compounds migrate through a diffusion process to the lower plate called the receptor.
The lipid mixture that impregnates the filter has a different constitution for the permeability tests for the blood–brain barrier (brain lipid from pig extract in dodecane) and gastrointestinal tract (L-α soy phosphatidylcholine in dodecane). In the PAMPA—BBB and PAMPA—GIT assays, the optical density values obtained in the reading at each selected wavelength, for each of the compounds were analysed in comparison with the values of several controls. In the case of the BBB, these values were used to elaborate an equation and determine the permeability coefficient (Pe), using a previously elaborated spreadsheet, and, for the PAMPA—GIT, these values were used to determine the absorbed fraction (Fa%), both using the Excel program. The permeability result for PAMPA—GIT classifies the compounds according to the percentage of absorbed fraction (Fa%), as follows: high intestinal permeability (70–100%), medium permeability (30–69%) or low permeability (0–29%), and the samples were diluted from a stock solution of 10 mM. The PAMPA—BBB model classifies the compounds only as follows: permeable (CNS+) or non-permeable (CNS−) and the assays were made from a stock solution of 1 mg for each compound [25, 40, 41, 42].

[1] = PBMC viability assay by MTT; type: cell-based, human; details: MTT 48 h, non-tumour human PBMC
Protocol: (§1) The SI indicates how selective a compound is for a tumour cell line compared with a non-tumour cell line.
(§2) Human peripheral blood mononuclear cells (PBMCs) were used to determine the selectivity index (SI) and were obtained from healthy volunteers under a protocol approved by the Ethics Committee CAAE: 38257914.7.0000.5259. Immortalized cells were also obtained from the Rio de Janeiro Cell Bank (BCRJ).
(§3) First, 8 mL of blood from each healthy donor (3 people) was collected in a tube with EDTA in a 1:20 ratio to prevent the blood from clotting. In a 15 mL Falcon tube containing 4 mL of Ficoll-Paque, the 8 mL of blood collected was slowly added, letting it fall down the walls of the tube. It was centrifuged (Universal Centrifuge 320R Hettich) for 40 min at 750× g at 21 °C with acceleration 1 and brake 0. After centrifugation, in order to extract the ring of mononuclear cells, the supernatant above it was first carefully discarded so as not to disturb the ring. The ring was then slowly removed and placed in another 15 mL Falcon tube to which pure RPMI-1640 medium was added in a 1:1 ratio and centrifuged for 10 min at 580× g and 21 °C with acceleration 8 and brake 9 [34, 35].
(§4) The supernatant was discarded, and the pellet was resuspended in 1 mL of RPMI-1640 medium supplemented with 10% SBF and 1% antibiotic. An amount of 20 µL of cells were taken from the mixture and added to 380 µL of trypan blue dye for counting in the Neubauer chamber. Considering that 80% of PBMCs are lymphocytes and the rest are monocytes, the cells were plated with the aim of having 10^5 cell/well.

[2] = system: human peripheral blood mononuclear cells (hPBMC); assay: PBMC viability assay by MTT; type: cell-based; details: MTT 48 h; for Emax: human PBMC, maximum cytotoxic response at 100 µM; for CC50: non-tumour human PBMC
Protocol: as §1, §2, §3, §4

[3] = system: T lymphoblast cell line (MOLT-4); assay: MTT cell viability assay, MOLT-4; details: Homo sapiens
Protocol: (§5) After the incubation time, the plate was centrifuged (Universal centrifuge 320R Hettich, Kirchlengern, Germany) at 440× g, 10 min and 4 °C, then 110 µL of supernatant was removed and 10 µL of MTT solution was added and left to incubate for 3.5 h in the oven at 37 °C and 5% CO2. […] The CC50 was calculated using the GraphPad Prism 9.0 program. Each sample was tested in triplicate in three independent experiments (N3) [32, 33].

[4] = system: human leukaemia cell line (CCRF-CEM); assay: MTT cell viability assay, CCRF-CEM
Protocol: as §5

MOLT-4 = assay: SRB cell viability/antiproliferative assay, MOLT-4; details: Homo sapiens, MOLT-4, 48 h
Plasma stability = type: in vitro ADME, rat; details: for recovery at 10 μM / half-life at 10 μM: rat plasma diluted with phosphate buffer, pH 7.4; for recovery at 10 μM: rat plasma stability assay; for metabolic stability in rat plasma (in words) / half-life at 10 μM / Elimination Rate Constant (k) / Metabolization Rate: rat plasma; for half-life at 10 μM / Elimination Rate Constant (k) / Metabolization Rate: 37 °C, 10 μM; for Metabolization Rate: 0–240 min
Protocol: Considering that both LASSBio-2208 and LASSBio-1911 have, in their structures, the N-acylhydrazone and hydroxamic acid fragments, both susceptible to metabolic hydrolysis, metabolic stability in plasma was conducted with both compounds.
LASSBio-2208 and LASSBio-1911, in a final concentration of 10 μM from stock solution of 1 mM, was added in 50 μL of rat plasma solution diluted in 250 μL with phosphate buffer (pH 7.4) and was placed in a shaker at 37 °C under vigorous stirring for 0, 30, 60, 120 and 240 min. After each reaction time, 1 mL of cold acetonitrile containing 2 uM internal standard was added to the wells to stop the reaction. The solution was mixed and centrifuged at 24,500× g for 15 min (Universal Centrifuge 320R Hettich). The supernatant (1 mL) was filtrated and placed in vials to be analysed by HPLC.

CCRF-CEM = assay: SRB cell viability/antiproliferative assay, CCRF-CEM; details: Homo sapiens, 48 h
[5] = Non-specific microsome protein binding; type: in vitro ADME; details: for fraction unbound at 60 min, 8.3 µM: rat, pH 7.4, liver microsomes 0.5 mg protein/mL, 37 °C, read-out: Percentage of ƒu(mic) (unbound fraction in nonspecific microsomal binding)
Protocol: Once such bonds are formed, the bound fraction would become incapable of being metabolized.
Liver microsomes were diluted with PBS pH 7.4 to a concentration of 0.5 mg protein/mL and 3 µL at 1 mM of the working test compound and solutions were mixed with 357 µL of liver microsome suspension. After mixing, duplicate 200 µL aliquots were immediately removed, while another microtubule acted as the control sample (T 0 h), and were quenched with 400 µL of cold acetonitrile containing analytical internal standards. The other samples were incubated at 37 °C at 100 rpm, for 60 min with the same subsequent treatment.

HDAC-6 = details: cited from earlier work

Row | Compound | Classification BBB (PAMPA—BBB) | Papp (PAMPA—BBB) | CC50 at 48 h [1] | Emax [2] | CC50 [2] | CC50 ([3]; MOLT-4, 24 h) | Emax ([3]; MOLT-4, 24 h) | CC50 ([3]; MOLT-4, 48 h) | Emax ([3]; MOLT-4, 48 h) | CC50 ([3]; MOLT-4, 72 h) | Emax ([3]; MOLT-4, 72 h) | CC50 ([4]; 24 h) | Emax ([4]; 24 h) | CC50 ([4]; 48 h) | Emax ([4]; 48 h) | CC50 ([4]; 72 h) | Emax ([4]; 72 h) | CC50 (MOLT-4) | metabolic stability in rat plasma (in words) (Plasma stability) | recovery at 10 μM (Plasma stability) | also measured
1 | CN(C)c1ccc(C(=O)N/N=C/c2ccc(C(=O)NO)cc2)cc1 [LASSBio-1911] | CNS− | 0.29 ×10⁻⁶ cm/s | > 100 µM | 31.1% | no cytotoxic effect | 13.8 µM | 96.5% | 6.15 µM | 98.9% | 5.27 µM | 99.2% | 9.69 µM | 98% | 6.98 µM | 98.8% | 6.92 µM | 97.1% | 53.1 µM | high metabolic stability | 73.4% | Emax (MOLT-4): 61%; half-life at 10 μM (Plasma stability): 6.42 h; Elimination Rate Constant (k) (Plasma stability): 0.0018; Metabolization Rate (Plasma stability): 36.14%; CC50 (CCRF-CEM): 25.2 µM; Emax (CCRF-CEM): 69.2%; fraction unbound at 60 min, 8.3 µM [5]: 0.004; IC50 (HDAC-6): 0.015 µM
2 | O=C(NO)c1ccc(/C=N/NC(=O)c2cc(N3CCOCC3)nc(-c3cccc(O)c3)n2)cc1 [LASSBio-2208] | CNS− | 0.69 ×10⁻⁶ cm/s | > 100 µM | 29.9% | no cytotoxic effect | 7.14 µM | 84.1% | 8.26 µM | 83.2% | 7.15 µM | 91.2% | 27.8 µM | 69.4% | 8.68 µM | 91.7% | 8.54 µM | 90.4% | > 100 µM | high metabolic stability | 75.5% | Pe. Exp. BBB (PAMPA—BBB): low permeation; half-life at 10 μM (Plasma stability): 14.4 h; Elimination Rate Constant (k) (Plasma stability): 0.0008; Metabolization Rate (Plasma stability): 20.61%; CC50 (CCRF-CEM): > 100 µM; unbound in nonspecific microsomal binding ([5]; liver microsomes): more than 93%; fraction unbound at 60 min, 8.3 µM [5]: 0.937; IC50 (HDAC-6): 0.0153 µM
